Drawing on PubChem BioAssay AID463203 (Broad Institute, 2010), this text covers AC50 for 93 molecules.

The target in the test is Glycogen synthase kinase-3 alpha (Homo sapiens) (UniProt P49840). The test can be described thus: concentration-response blocking of human GSK3A – biochemical, luminescence, cell-free homogeneous, retest, dose response (AID 463203). Particulars: GSK-3 alpha enzyme, ADP-Glo luminescence, 60 min.

The source made the active and inactive calls.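 Rule for the calls: active = more than half of replicate measurements showing over 20% loss of kinase signal relative to plate controls; inconclusive = some but at most half of replicates over 20% loss; inactive = no replicate over 20% signal loss.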

Glycogen synthase kinase-3 alpha (Homo sapiens), sequence (P49840 whole entry, looked up): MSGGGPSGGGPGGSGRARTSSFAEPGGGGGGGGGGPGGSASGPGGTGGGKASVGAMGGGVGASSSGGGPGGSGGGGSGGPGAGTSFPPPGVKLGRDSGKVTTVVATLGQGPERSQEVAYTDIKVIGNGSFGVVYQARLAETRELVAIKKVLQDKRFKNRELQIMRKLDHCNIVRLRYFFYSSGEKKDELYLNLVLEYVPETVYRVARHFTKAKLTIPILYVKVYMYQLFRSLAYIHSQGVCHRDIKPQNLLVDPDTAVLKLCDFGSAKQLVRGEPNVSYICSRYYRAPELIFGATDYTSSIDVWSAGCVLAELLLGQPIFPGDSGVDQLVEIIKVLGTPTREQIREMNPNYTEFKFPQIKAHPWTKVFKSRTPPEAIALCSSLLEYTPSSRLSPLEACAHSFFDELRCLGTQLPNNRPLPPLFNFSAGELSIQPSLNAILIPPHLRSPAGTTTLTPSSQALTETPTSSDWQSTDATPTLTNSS

Take `CCOC(=O)c1[nH]c2c(c1C)C(=O)CC(c1ccc(OC)c(OC)c1)C2` (stereo not drawn): the AC50 (in general, the concentration giving half of the maximal activity seen) was > 30 µM (inactive).

As for `CCOc1cc(/C=C2\SC(N)=NC2=O)ccc1O`, the AC50 was 22.9 µM.

Turning to `CCN1CCN(c2nc(Nc3cccc(OC)c3)nc(N)c2[N+](=O)[O-])CC1`, the AC50 is > 30 µM (inactive).

`O=C(NCc1ccc2c(c1)OCO2)c1cc(COc2c(F)cccc2F)on1`: the AC50 was > 30 µM (inactive).

In the case of `COc1ccc(-n2c(O)c(C=NCc3ccc4c(c3)OCO4)c(=O)[nH]c2=O)cc1`, the AC50 is > 30 µM (inactive).

`FC(F)(F)c1cnc(N/N=C/c2ccncc2)c(Cl)c1`: the AC50 is > 30 µM (inactive).

With `CCCC1=C(C(=O)OCC)C(c2cccnc2)n2nc(C)nc2N1` (stereo not drawn), the AC50 was > 30 µM (inactive).

With `CNC(=O)c1ccsc1NC(=O)C1CCCN1S(=O)(=O)c1cccs1` (stereo not drawn), the AC50 is 17.2 µM.

Turning to `Nc1nc(NCc2ccccc2)nc(NCc2ccccc2)c1[N+](=O)[O-]`, the AC50 was > 30 µM (inactive).

For `Cc1c(C(=O)N2CCOCC2)oc2ccc(S(=O)(=O)N3CCCCCC3)cc12`, the AC50 was > 30 µM (inactive).

Regarding `COc1cccc(C(=O)O/N=C(\N)c2ccccn2)c1OC`, the AC50 was > 30 µM (inactive).

Turning to `COc1ccc(OC)c(NC(=O)c2nnn(Cc3ccc(Br)cc3F)c2N)c1`, the AC50 is > 30 µM (inactive).

In the case of `CC(=O)Nc1cccc(-c2cnc(N)c(C(=O)c3cccnc3)n2)c1`, the AC50 was 0.105 µM.

As to `CCc1ccc(C2CC(c3ccccc3Cl)Nc3nc(N)nn32)cc1` (stereo not drawn), the AC50 was > 30 µM (inactive).

Take `Oc1ccc2oc3c(c2c1/C=N/n1cnnc1)CCCC3`: the AC50 was > 30 µM (inactive).

Consider `N#Cc1sc2nc3c(c(-c4ccco4)c2c1N)CCCC3`, for which the AC50 is 2.42 µM.

With `CC(=O)c1c(O)ccc2c(-c3ccccc3)cc(=O)oc12`, the AC50 was > 30 µM (inactive).

In the case of `Cc1cc(C(C#N)c2cccc(Cl)c2)n2ncnc2n1` (stereo not drawn), the AC50 was 5.78 µM.

On to `COc1ccc(C2=Nn3c(nnc3-c3ccncc3)SC2)cc1`, for which the AC50 was 5.49 µM.

For the molecule `N/C(=N\OC(=O)c1ccc(Br)cc1)c1cccc([N+](=O)[O-])c1`, the AC50 is > 30 µM (inactive).

Regarding `O=C(Nc1ccccc1)c1ccc(CSc2ncccn2)cc1`, the AC50 was > 30 µM (inactive).

For `Nc1c(C(=O)O)ccc2c1C(=O)c1ccccc1C2=O`, the AC50 was 7.87 µM.

In the case of `CCOC(=O)c1cnc2ccc(OCC)cc2c1N1CCN(c2ccccc2OC)CC1`, the AC50 is 3.95 µM.

`O=C(Nc1cccc(-c2nc3cccnc3s2)c1)c1cccnc1Cl`: the AC50 was 8.59 µM.

Regarding `O=C(COc1ccccc1Br)NC1CC1`, the AC50 is > 30 µM (inactive).

Take `COc1ccc(OC)c(C(=O)c2c(C)oc3cc(Br)c(O)c(CN(C)C)c23)c1`: the AC50 was > 30 µM (inactive).

For `COc1c2ccccc2c(OC)c2ccccc12`, the AC50 was > 30 µM (inactive).

Regarding `CCOC(=O)c1nnn(-c2nonc2N)c1-c1cccc2ccccc12`, the half-maximal activity concentration (AC50) was 27.9 µM.

In the case of `CSc1nnc([C@@H](N)Cc2c[nH]c3ccccc23)o1`, the AC50 is > 30 µM (inactive).

On to `Cc1nc(S/C(=C/c2ccc(-c3ccc(C(=O)O)cc3)o2)C(=O)O)n[nH]1`, for which the AC50 was 21.4 µM.

With `Cc1c(C(=O)OCCOC(C)C)[nH]c2c1C(=O)CC(C)(C)C2`, the AC50 was 25.4 µM.

With `O=c1[nH]ncc(N/N=C\c2ccncc2)c1Cl`, the AC50 is 25.4 µM.

Consider `COc1cc(/C(C)=N/NC(=O)c2nnn(-c3nonc3N)c2-c2cccs2)ccc1O`, for which the AC50 was 1.95 µM.

`CCC(C)c1ccc(NC(=S)NCc2cccs2)cc1` (stereo not drawn): the AC50 is > 30 µM (inactive).

Take `Cc1cc(=O)[nH]c2c(C)c(N)ccc12`: the AC50 is > 30 µM (inactive).

In the case of `COc1ccc(C(=O)NCC(=O)N/N=C/C(C)=C/c2ccccc2)cc1OC`, the AC50 was > 30 µM (inactive).

As to `CCc1c(C)sc(NC(=O)C2CC2c2ccccc2)c1C(N)=O` (stereo not drawn), the AC50 is > 30 µM (inactive).

In the case of `Cc1ccc(N=C2NC(=O)/C(=C\c3ccco3)S2)cc1`, the AC50 was > 30 µM (inactive).

On to `O=c1cc(-c2ccccc2)oc2ccccc12`, for which the AC50 was > 30 µM (inactive).

Take `Cc1csc(NC(=O)c2ccc3c(c2)OCO3)n1`: the AC50 was > 30 µM (inactive).

In the case of `COc1ccc(-c2noc(CCC(=O)Nc3nc4ccccc4s3)n2)cc1`, the AC50 was > 30 µM (inactive).

In the case of `CC(C)CSc1ncnc2c1oc1nc3c(cc12)COC(C)(C)C3`, the AC50 is > 30 µM (inactive).

Turning to `Cc1ccc(CSc2nnc(-c3cccnc3)o2)cc1`, the AC50 was > 30 µM (inactive).

Consider `CSc1ncccc1-c1nc2ccccc2[nH]1`, for which the AC50 is > 30 µM (inactive).

As to `COc1ccc(-c2nc3ncccn3c2Nc2ccccc2)cc1`, the AC50 is > 30 µM (inactive).

Take `CCc1cc2c(N3CCN(c4nnc(CC)s4)CC3)ncnc2s1`: the AC50 was 16 µM.

On to `C/C(=N\NC(=O)c1nnn(-c2nonc2N)c1CN1CCCCCC1)c1ccc(Br)cc1`, for which the AC50 was 29.7 µM.

Turning to `C=CCn1c(O)c(C=NCCCn2ccnc2)c(=O)[nH]c1=O`, the AC50 is 14 µM.

On to `Cc1ccsc1C(=O)OCC(=O)N1C(C)CCCC1C` (stereo not drawn), for which the AC50 was > 30 µM (inactive).

Turning to `O=C(CCSc1nc(-c2ccco2)cc(C(F)(F)F)n1)NCc1cccs1`, the AC50 is > 30 µM (inactive).

Regarding `O=C1N/C(=N\S(=O)(=O)Cc2ccccc2)S/C1=C/c1cccc([N+](=O)[O-])c1`, the AC50 was > 30 µM (inactive).

Regarding `O=C(OC1CO[C@H]2O[C@@H]1[C@H](OC(=O)c1ccccc1)[C@H]2OC(=O)c1ccccc1)c1ccccc1` (stereo partly drawn), the AC50 was > 30 µM (inactive).

For the molecule `CC(=C/c1ccccc1)/C=N/NC(=O)c1nnn(-c2nonc2N)c1CN1CCC(C)CC1`, the AC50 is > 30 µM (inactive).

In the case of `COc1cc(C2CC(=O)Nc3n[nH]c(-c4ccccc4)c32)cc(OC)c1OC` (stereo not drawn), the AC50 was > 30 µM (inactive).

With `COc1ccc(/C=C/c2nc(N)nc(-c3ccccc3O)n2)cc1`, the AC50 is > 30 µM (inactive).

On to `CCCC(=O)Nc1cc(-c2cn3cccnc3n2)ccc1OC`, for which the AC50 is > 30 µM (inactive).

With `Cc1nc(NCCc2ccccc2)c(C#N)c(C)c1[N+](=O)[O-]`, the AC50 is > 30 µM (inactive).

`COc1ccc(NC(=O)c2nnn(Cc3cccc(F)c3)c2N)c(OC)c1`: the AC50 is > 30 µM (inactive).

Take `Clc1ccc(-c2nc3ncccn3c2Nc2ccc3c(c2)OCO3)cc1`: the AC50 was > 30 µM (inactive).

Regarding `Cc1cccc(Nc2nc(C)cc(C)n2)c1`, the AC50 is > 30 µM (inactive).

In the case of `COc1cc(C2CC(=O)N3CN(Cc4ccccc4)CSC3=C2C#N)ccc1OCc1ccccc1` (stereo not drawn), the AC50 was > 30 µM (inactive).

For `COc1ccc(Nc2nc(-c3ccccc3)cs2)cc1`, the AC50 is > 30 µM (inactive).

With `CCC(C)[C@H](NC(=O)NCc1ccccc1Cl)C(=O)OC` (stereo partly drawn), the AC50 was > 30 µM (inactive).

In the case of `CCOC(=O)C1=C(O)/C(=C\c2sccc2C)N=C1C`, the AC50 was > 30 µM (inactive).

Consider `O=C(CSc1cccs1)Nc1ccc(Cl)cc1`, for which the AC50 is > 30 µM (inactive).

For the molecule `COc1cc(OC)cc(-c2nnc(SCc3c(F)cccc3Cl)o2)c1`, the AC50 is > 30 µM (inactive).

Turning to `CCOC(=O)c1c(NC(=O)CN2C(=O)NC3(CCCCC3C)C2=O)sc(C)c1CC` (stereo not drawn), the AC50 is > 30 µM (inactive).

Regarding `Cc1nc(SCC(=O)N(CC(C)C)C2CCS(=O)(=O)C2)c2ccccc2n1` (stereo not drawn), the AC50 was > 30 µM (inactive).

With `O=C(COc1ccccc1Cl)NC1CC1`, the AC50 is > 30 µM (inactive).

Take `COc1cc(-c2nnc(SCc3c(F)cccc3Cl)o2)cc(OC)c1OC`: the AC50 is > 30 µM (inactive).

In the case of `CCc1ccc(C2CC(c3ccc(F)cc3)Nc3nc(N)nn32)cc1` (stereo not drawn), the AC50 is > 30 µM (inactive).

As for `O=C(CCn1[nH]c(=O)c2ccccc2c1=O)N1CCOCC1`, the AC50 is > 30 µM (inactive).

As for `CCCCn1c(O)c(C(CC)=NCCCn2ccnc2)c(=O)[nH]c1=O`, the AC50 was 13.9 µM.

Regarding `CCOC(=O)c1[nH]c2c(c1-c1ccccc1)C(=O)CC(c1ccccc1)C2` (stereo not drawn), the AC50 was > 30 µM (inactive).

`N/C(=N\OC(=O)c1ccc2ccccc2c1)c1cccc([N+](=O)[O-])c1`: the AC50 was > 30 µM (inactive).

With `COc1cc(/C=C/c2nc(N)nc(-c3ccccc3O)n2)cc(OC)c1OC`, the AC50 is > 30 µM (inactive).

As to `CCOc1ccc2nnc(-c3ccc(Br)cc3)n2n1`, the AC50 was > 30 µM (inactive).

On to `Cc1cc(C)nc(NS(=O)(=O)c2cccs2)c1`, for which the AC50 was > 30 µM (inactive).

Regarding `NC(=O)c1cccc(S(=O)(=O)N2CC(c3ccccc3)CC2=O)c1` (stereo not drawn), the AC50 was > 30 µM (inactive).

For `CCNC(=S)NNC(=O)c1cccs1`, the AC50 is > 30 µM (inactive).

Regarding `COc1cccc(-n2c(SCC(N)=O)nnc2-c2ccco2)c1`, the AC50 is > 30 µM (inactive).

As for `Cc1cccc(-c2c3c(=O)n(C)c(=O)n(C)c3c3cccnn23)c1`, the AC50 was > 30 µM (inactive).

On to `Cc1cccc(NC(=O)COC(=O)c2ccccn2)c1`, for which the AC50 is > 30 µM (inactive).

For the molecule `Nc1nc(NCCc2ccccc2)nc(NCc2ccccc2)c1[N+](=O)[O-]`, the AC50 is 1.66 µM.

Regarding `Cc1cnc(NC(=O)C2COc3ccccc3O2)s1` (stereo not drawn), the AC50 is 19.2 µM.

For `Nc1nonc1-n1nnc(C(=O)N/N=C\c2cccc(Cl)c2)c1CN1CCOCC1`, the AC50 was 15.2 µM.

For the molecule `Cc1oc2ccc(O)c(CN(C)C)c2c1C(=O)c1ccccc1`, the AC50 is > 30 µM (inactive).

As for `COc1ccc(C(=O)Nc2nc(C)cc(C)n2)cc1`, the AC50 is > 30 µM (inactive).

For `Cn1cnnc1Sc1ccc(CN2CCN(C3CCCC3)C(CCO)C2)o1` (stereo not drawn), the AC50 is > 30 µM (inactive).

Regarding `CSc1cccc(NC(=O)CN(C)S(=O)(=O)c2cnc[nH]2)c1`, the AC50 is > 30 µM (inactive).

Regarding `COc1cc(-c2[nH]nc3c2C(c2ccoc2)C(C#N)=C(N)O3)cc(OC)c1OC` (stereo not drawn), the AC50 was 26.1 µM.

For `CC(=O)C1C(c2ccccc2)c2c(n[nH]c2C)CC1(C)O` (stereo not drawn), the AC50 is > 30 µM (inactive).

Consider `Cc1ccnc(NC(=O)CCC(=O)N(CC(=O)NCc2ccccc2)Cc2ccccc2)c1`, for which the AC50 was 15.1 µM.
